Reference: ChEMBL document CHEMBL4393733 (Bioorg Med Chem, 2019)

What was measured:
[1] = biological target: Carbonic anhydrase 2 (Homo sapiens, UniProt P00918); test: Inhibition of human recombinant N-HA-tagged carbonic anhydrase 2 expressed in HEK293T cells using p-nitrophenyl acetate as substrate measured after 30 mins by colorimetric analysis
[2] = Inhibition of human recombinant N-His-tagged carbonic anhydrase 11 expressed in HEK293T cells using p-nitrophenyl acetate as substrate measured after 30 mins by colorimetric analysis

Structure (SMILES) | IC50 [1] | IC50 [2]
NS(=O)(=O)Oc1ccc(-c2ccc3occc3c2)cc1 | 2600 nM | 1110 nM
CCCS(=O)(=O)Oc1ccc(-c2ccc3sccc3c2)cc1 | 310 nM | 7550 nM
CNS(=O)(=O)Oc1ccc(-c2ccc3sccc3c2)cc1 | 1210 nM | 520 nM
CNS(=O)(=O)Oc1ccc(-c2ccc3occc3c2)cc1 | 1040 nM | 640 nM
O=S(=O)(Oc1ccc(-c2ccc3sccc3c2)cc1)c1ccc(F)cc1 | 2100 nM | 3100 nM
CN(C)S(=O)(=O)Oc1ccc(-c2ccc3sccc3c2)cc1 | 5820 nM | 2840 nM
O=S(=O)(Oc1ccc(-c2ccc3occc3c2)cc1)c1ccc(F)cc1 | 140 nM | 1600 nM
CCS(=O)(=O)Oc1ccc(-c2ccc3occc3c2)cc1 | 1600 nM | 130 nM
Cc1ccc(S(=O)(=O)Oc2ccc(-c3ccc4sccc4c3)cc2)cc1 | 3300 nM | 1770 nM

Second part, the compound after the results:

IC50 [1] | IC50 [2] | Structure (SMILES)
2130 nM | 2170 nM | CS(=O)(=O)Oc1ccc(-c2ccc3occc3c2)cc1
1620 nM | 690 nM | CCCS(=O)(=O)Oc1ccc(-c2ccc3occc3c2)cc1
1500 nM | 1010 nM | CS(=O)(=O)Oc1ccc(-c2ccc3sccc3c2)cc1
500 nM | 280 nM | Cc1ccc(S(=O)(=O)Oc2ccc(-c3ccc4occc4c3)cc2)cc1
1320 nM | 240 nM | NS(=O)(=O)Oc1ccc(-c2ccc3sccc3c2)cc1
410 nM | 850 nM | O=S(=O)(Oc1ccc(-c2ccc3occc3c2)cc1)c1ccccc1
1300 nM | 140 nM | CCS(=O)(=O)Oc1ccc(-c2ccc3sccc3c2)cc1
1490 nM | 2700 nM | O=S(=O)(Oc1ccc(-c2ccc3sccc3c2)cc1)c1ccccc1
1230 nM | 1710 nM | CN(C)S(=O)(=O)Oc1ccc(-c2ccc3occc3c2)cc1
